Measurements taken from patent US11046672B2, “Indolinones compounds and their use in the treatment of fibrotic diseases” (RESPIVERT LIMITED, priority 2015, dated 2021).
Read-outs that look alike come from different tables or passages of the source.

Legend:
[1] = PAMPA permeability assay; format: in vitro ADME; conditions: PAMPA, donor and acceptor compartments
[2] = test system: MRC5 cells; experiment: Cell viability assay in MRC5 cells (MTT)
[3] = biological target: T1, PDGFRβ (Homo sapiens (Human), UniProt P09619); conditions: read-out: Ki PDGFRβ; mean, n = 2 unless otherwise indicated
T1 sequence (P09619 33-1106): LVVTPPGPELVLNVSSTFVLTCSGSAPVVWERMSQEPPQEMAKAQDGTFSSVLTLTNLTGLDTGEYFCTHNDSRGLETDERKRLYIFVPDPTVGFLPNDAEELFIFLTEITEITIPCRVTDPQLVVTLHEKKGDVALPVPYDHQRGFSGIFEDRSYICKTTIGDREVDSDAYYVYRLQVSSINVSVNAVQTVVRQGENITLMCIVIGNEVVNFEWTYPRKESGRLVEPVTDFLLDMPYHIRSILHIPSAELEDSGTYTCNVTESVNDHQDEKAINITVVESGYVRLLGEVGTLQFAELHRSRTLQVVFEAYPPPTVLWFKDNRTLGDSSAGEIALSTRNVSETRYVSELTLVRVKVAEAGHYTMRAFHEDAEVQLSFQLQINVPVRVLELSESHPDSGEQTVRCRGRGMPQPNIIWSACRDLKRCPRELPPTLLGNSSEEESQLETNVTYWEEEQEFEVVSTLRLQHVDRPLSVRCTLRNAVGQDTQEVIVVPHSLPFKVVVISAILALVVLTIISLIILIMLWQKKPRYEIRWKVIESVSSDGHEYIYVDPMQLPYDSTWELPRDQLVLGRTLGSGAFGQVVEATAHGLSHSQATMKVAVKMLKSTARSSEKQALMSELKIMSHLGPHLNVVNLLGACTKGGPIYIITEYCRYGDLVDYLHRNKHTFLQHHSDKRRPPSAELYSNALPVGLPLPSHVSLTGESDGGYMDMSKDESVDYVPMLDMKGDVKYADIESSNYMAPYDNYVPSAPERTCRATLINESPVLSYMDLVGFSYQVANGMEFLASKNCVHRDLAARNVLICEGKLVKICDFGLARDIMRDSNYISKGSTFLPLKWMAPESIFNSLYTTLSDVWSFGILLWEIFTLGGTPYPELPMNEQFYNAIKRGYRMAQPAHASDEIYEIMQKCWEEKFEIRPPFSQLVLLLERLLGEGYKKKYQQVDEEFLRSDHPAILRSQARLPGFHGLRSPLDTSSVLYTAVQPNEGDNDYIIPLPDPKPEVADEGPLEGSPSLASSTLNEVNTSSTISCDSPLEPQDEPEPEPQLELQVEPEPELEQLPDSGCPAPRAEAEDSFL

[4] = Pharmacokinetic measurements in mice (intravenous and intra-nasal dosing); format: in vivo; conditions: mouse; for concentration at 6 h / concentration at 0.1 h / concentration at 1.5 h / concentration at 24 h: lung, read-out: lung concentration (nM) at time (h); for Kp at 6 h / Kp at 0.1 h / Kp at 1.5 h: lung/plasma
[5] = biological target: T1, PDGFRβ; experiment: Duration of action (washout) against PDGF-BB induced phosphorylation of PDGFRβ in human fetal lung fibroblast cells; format: cell-based; conditions: MRC-5 cells, after wash-out, rhuPDGF-BB; experiments in Groups 1-4
[6] = biological target: T1, PDGFRβ; experiment: PDGF-BB induced phosphorylation of PDGFRβ in fibroblasts (MRC5 cells, HTRF); format: cell-based; conditions: MRC5 cells; n = 1 unless otherwise indicated; read-out: PDGFBB-induced PDGFRβ phosphorylation in MRC5 cells (IC50)
[7] = Pharmacokinetic measurements in rats (intravenous and intra-tracheal dosing); format: in vivo; conditions: rat; for concentration at 6 h / concentration at 0.1 h / concentration at 1.5 h / concentration at 24 h: lung, read-out: lung concentration (nM) at time (h); for Kp at 6 h / Kp at 0.1 h / Kp at 1.5 h / Kp at 24 h: lung/plasma

Structure (SMILES): COC(=O)c1cc2c(cc1C)/C(=C(/Nc1ccc(C(=O)NOCCN(C)C)c(C)c1)c1ccccc1)C(=O)N2 [Example 5, (Z)-Methyl 3-(((4-((2-(dimethylamino)ethoxy)carbamoyl)-3-methylphenyl)amino)(phenyl)methylene)-5-methyl-2-oxoindoline-6-carboxylate]
- % Recovery [1]: 60.9%
- recovery at 5 hr, 10 μM ([1]; pH 7, PAMPA): 50.4%
- Cell viability at 100 nM (%) ([2]; 100 nM): 100.6%
- Cell viability at 300 nM (%) ([2]; 300 nM): 92.5%
- Cell viability at 1000 nM (%) ([2]; 1000 nM): 71.5%
- Ki [3]: 7.13 nM
- concentration at 6 h ([4]; male, C57BL/6J, iv, 0.2 mg/kg, i.v. dosing, 6 h, mean): 306 nM
- concentration at 0.1 h ([4]; male, C57BL/6J, iv, i.v. dosing, 0.1 h, mean): 868 nM
- concentration at 1.5 h ([4]; male, C57BL/6J, iv, i.v. dosing, 1.5 h, mean): 416 nM
- concentration at 24 h ([4]; male, C57BL/6J, iv, i.v. dosing, 24 h, mean): 20 nM
- concentration at 0.1 h ([4]; male, C57BL/6J, other: intra-nasal, i.n. dosing, 0.1 h, mean): 3510 nM
- concentration at 1.5 h ([4]; male, C57BL/6J, other: intra-nasal, i.n. dosing, 1.5 h, mean): 1730 nM
- concentration at 6 h ([4]; male, C57BL/6J, other: intra-nasal, i.n. dosing, 6 h, mean): 1320 nM
- concentration at 24 h ([4]; male, C57BL/6J, other: intra-nasal, i.n. dosing, 24 h, mean): 363 nM
- Kp at 6 h ([4]; male, C57BL/6J, iv, 0.2 mg/kg, i.v. dosing, 6 h, read-out: lung/plasma ratio at time(h)): 152
- Kp at 0.1 h ([4]; male, C57BL/6J, iv, i.v. dosing, 0.1 h, read-out: lung/plasma ratio at time(h)): 13
- Kp at 1.5 h ([4]; male, C57BL/6J, iv, i.v. dosing, 1.5 h, read-out: lung/plasma ratio at time(h)): 39
- Kp at 0.1 h ([4]; male, C57BL/6J, other: intra-nasal, i.n. dosing, 0.1 h, read-out: lung/plasma conc ratio at time(h)): 209
- Kp at 1.5 h ([4]; male, C57BL/6J, other: intra-nasal, i.n. dosing, 1.5 h, read-out: lung/plasma conc ratio at time(h)): 688
- Kp at 6 h ([4]; male, C57BL/6J, other: intra-nasal, i.n. dosing, 6 h, read-out: lung/plasma conc ratio at time(h)): 1130
- clearance ([4]; male, C57BL/6J, whole blood, iv): 111 mL/min/kg
- MRT ([4]; male, C57BL/6J, whole blood, iv, i.v. dosing, mean): 3.2 h
- Vd ([4]; male, C57BL/6J, whole blood, iv, i.v. dosing, mean, read-out: Vss): 21 L/kg
- half-life ([4]; male, C57BL/6J, whole blood, iv, i.v. dosing, mean, read-out: t½ (converted)): 2.6 h
- Lung conc i.n./i.v. Ratio at time (h) ([4]; 0.1 h): 4.0
- Lung conc i.n./i.v. Ratio at time (h) ([4]; 1.5 h): 4.2
- Lung conc i.n./i.v. Ratio at time (h) ([4]; 6 h): 4.3
- Lung conc i.n./i.v. Ratio at time (h) ([4]; 24 h): 18.2
- BAV (%) ([4]; i.n. dosing (i.n. dose 1 nintedanib, 0.2 examples), mean): 14%
- BAL % administered dose at time (h) ([4]; i.n. dosing, 0.1 h): 1%
- BAL % administered dose at time (h) ([4]; i.n. dosing, 1.5 h): 0.1%
- BAL % administered dose at time (h) ([4]; i.n. dosing, 6 h): 0.3%
- BAL % administered dose at time (h) ([4]; i.n. dosing, 24 h): 0.1%
- BAL % administered dose at time (h) ([4]; i.v. dosing, 0.1 h): 0.07%
- BAL % administered dose at time (h) ([4]; i.v. dosing, 1.5 h): 0.02%
- BAL % administered dose at time (h) ([4]; i.v. dosing, 6 h): 0.01%
- BAL % administered dose at time (h) ([4]; i.v. dosing, 24 h): 0.02%
- BAV (%) ([4]; oral dosing (oral dose 60 mg/kg nintedanib, 10 mg/kg examples), mean): 13%
- % phos: percentage phosphorylation after wash-out relative to maximal phosphorylation (100%) [5]: 37.3%
- IC50 [6]: 7.74 nM
- concentration at 6 h ([7]; male, CD, iv, 0.1 mg/kg, i.v. dosing, 6 h): 92 nM
- concentration at 0.1 h ([7]; male, CD, iv, i.v. dosing, 0.1 h): 475 nM
- concentration at 1.5 h ([7]; male, CD, iv, i.v. dosing, 1.5 h): 251 nM
- concentration at 24 h ([7]; male, CD, iv, i.v. dosing, 24 h): 52 nM
- concentration at 0.1 h ([7]; male, CD, other: intra-tracheal, i.t. dosing, 0.1 h): 3590 nM
- concentration at 1.5 h ([7]; male, CD, other: intra-tracheal, i.t. dosing, 1.5 h): 1710 nM
- concentration at 6 h ([7]; male, CD, other: intra-tracheal, i.t. dosing, 6 h): 629 nM
- concentration at 24 h ([7]; male, CD, other: intra-tracheal, i.t. dosing, 24 h): 747 nM
- Kp at 6 h ([7]; male, CD, iv, 0.1 mg/kg, i.v. dosing, 6 h, read-out: lung/plasma ratio at time(h)): 26
- Kp at 0.1 h ([7]; male, CD, iv, i.v. dosing, 0.1 h, read-out: lung/plasma ratio at time(h)): 24
- Kp at 1.5 h ([7]; male, CD, iv, i.v. dosing, 1.5 h, read-out: lung/plasma ratio at time(h)): 36
- Kp at 24 h ([7]; male, CD, iv, i.v. dosing, 24 h, read-out: lung/plasma ratio at time(h)): 98
- Kp at 0.1 h ([7]; male, CD, other: intra-tracheal, i.t. dosing, 0.1 h, read-out: lung/plasma conc ratio at time(h)): 74
- Kp at 1.5 h ([7]; male, CD, other: intra-tracheal, i.t. dosing, 1.5 h, read-out: lung/plasma conc ratio at time(h)): 362
- Kp at 6 h ([7]; male, CD, other: intra-tracheal, i.t. dosing, 6 h, read-out: lung/plasma conc ratio at time(h)): 461
- Kp at 24 h ([7]; male, CD, other: intra-tracheal, i.t. dosing, 24 h, read-out: lung/plasma conc ratio at time(h)): 1520
- MRT ([7]; male, CD, plasma, iv, i.v. dosing): 8 h
- clearance ([7]; male, CD, plasma, iv, i.v. dosing (i.v. dose 0.1-0.5 per compound)): 48 mL/min/kg
- Vd ([7]; male, CD, plasma, iv, i.v. dosing, read-out: Vss): 23 L/kg
- half-life ([7]; male, CD, plasma, iv, i.v. dosing, read-out: t½ (converted)): 7.6 h
- Lung conc i.t./i.v. Ratio at time (h) ([7]; 0.1 h): 7.6
- Lung conc i.t./i.v. Ratio at time (h) ([7]; 1.5 h): 6.8
- Lung conc i.t./i.v. Ratio at time (h) ([7]; 6 h): 6.8
- Lung conc i.t./i.v. Ratio at time (h) ([7]; 24 h): 14.4
- i.t. BAV (%) ([7]; i.t. dosing (i.t. dose 0.1-0.5 per compound)): 70%
- BAL % administered dose at time (h) ([7]; i.t. dosing, 0.1 h): 3.1%
- BAL % administered dose at time (h) ([7]; i.t. dosing, 1.5 h): 0.6%
- BAL % administered dose at time (h) ([7]; i.t. dosing, 6 h): 0.3%
- BAL % administered dose at time (h) ([7]; i.t. dosing, 24 h): 0.2%
- BAL % administered dose at time (h) ([7]; i.v. dosing, 0.1 h): 0.04%
- BAL % administered dose at time (h) ([7]; i.v. dosing, 1.5 h): 0.01%
- BAL % administered dose at time (h) ([7]; i.v. dosing, 6 h): 0.01%
- BAL % administered dose at time (h) ([7]; i.v. dosing, 24 h): 0.01%
- Oral BAV (%) ([7]; oral dose 3 mg/kg): 4%
